Results on nine molecules are retold here after patent publication US20240239785A1, “SUBSTITUTED 2-(2,6-DIOXOPIPERIDIN-3-YL)-5-(1-PIPERIDIN-4-YL)ISOINDOLINE-1,3-DIONE DERIVATIVES AND USES THEREOF” (Neomorph, Inc., priority 2021, published 2024).

Structures can show the parent of a compound that is named as a salt. Where two headings read alike, the source gives them in different places. Bounds are passed on as bounds.

The target of data set [1] is hERG (Homo sapiens, UniProt Q12809). The experiment in a line: hERG IC50. On the technique in general: The hERG channel carries a current that helps repolarise heart muscle cells.
The target in data set [2] is T1, IKZF2 (Homo sapiens, UniProt Q96SW2+Q9UKS7).
T1 construct: endogenous in cells; host or cells: MOLT4 (CRISPR/Cas9 HiBit knock-in at the IKZF2 locus)
The data set can be described thus: MOLT4 IKZF2 HiBit assay. The class given is cell-based. Conditions: MOLT4 IKZF2 HiBit cells; for DC50: 6 hours incubation, 10-point dose response from 30 μM; for Dmax at 30 µM: MOLT-4, 6 hr (Dmax), read-out: % reduction of IKZF2 @ 30 μM (6 hr). Here is the method: MOLT4 IKZF2 HiBit Assay Protocol:
This protocol used MOLT4 cells that were engineered using CRISPR/Cas9-mediated genomic insertion of HiBit, tagged to the N terminus of the IKZF2 coding sequence. Day 1. A 10-point dose response was created starting from 30 μM down to InM using a Tecan D300e. Next was added 8,000 cells/well of the MOLT4 IKZF2 HiBit cells to the compound plate. The compounds plate was incubated for 6 hours. Day 2. Nano-Glo HiBit Lytic Buffer/Nano-Glo HiBit Lytic substrate/LgBit Protein mix was added to each well and the compound plate was incubated for 15 minutes. Finally, luminescence signal was read using a BMG Labtech PHERAstar FSX. Data was normalized to DMSO and graphed using GraphPad Prism to determine the concentration points at which 50% of HiBiT-Helios degradation was achieved by each compound. The extent of degradation (range of luminescence) from the highest to lowest concentration points was calculated to determine Dmax.
For orientation: With HiBiT, luminescence reflects the tagged protein that the partner subunit can reach.

Chain of hERG (Q12809 whole entry): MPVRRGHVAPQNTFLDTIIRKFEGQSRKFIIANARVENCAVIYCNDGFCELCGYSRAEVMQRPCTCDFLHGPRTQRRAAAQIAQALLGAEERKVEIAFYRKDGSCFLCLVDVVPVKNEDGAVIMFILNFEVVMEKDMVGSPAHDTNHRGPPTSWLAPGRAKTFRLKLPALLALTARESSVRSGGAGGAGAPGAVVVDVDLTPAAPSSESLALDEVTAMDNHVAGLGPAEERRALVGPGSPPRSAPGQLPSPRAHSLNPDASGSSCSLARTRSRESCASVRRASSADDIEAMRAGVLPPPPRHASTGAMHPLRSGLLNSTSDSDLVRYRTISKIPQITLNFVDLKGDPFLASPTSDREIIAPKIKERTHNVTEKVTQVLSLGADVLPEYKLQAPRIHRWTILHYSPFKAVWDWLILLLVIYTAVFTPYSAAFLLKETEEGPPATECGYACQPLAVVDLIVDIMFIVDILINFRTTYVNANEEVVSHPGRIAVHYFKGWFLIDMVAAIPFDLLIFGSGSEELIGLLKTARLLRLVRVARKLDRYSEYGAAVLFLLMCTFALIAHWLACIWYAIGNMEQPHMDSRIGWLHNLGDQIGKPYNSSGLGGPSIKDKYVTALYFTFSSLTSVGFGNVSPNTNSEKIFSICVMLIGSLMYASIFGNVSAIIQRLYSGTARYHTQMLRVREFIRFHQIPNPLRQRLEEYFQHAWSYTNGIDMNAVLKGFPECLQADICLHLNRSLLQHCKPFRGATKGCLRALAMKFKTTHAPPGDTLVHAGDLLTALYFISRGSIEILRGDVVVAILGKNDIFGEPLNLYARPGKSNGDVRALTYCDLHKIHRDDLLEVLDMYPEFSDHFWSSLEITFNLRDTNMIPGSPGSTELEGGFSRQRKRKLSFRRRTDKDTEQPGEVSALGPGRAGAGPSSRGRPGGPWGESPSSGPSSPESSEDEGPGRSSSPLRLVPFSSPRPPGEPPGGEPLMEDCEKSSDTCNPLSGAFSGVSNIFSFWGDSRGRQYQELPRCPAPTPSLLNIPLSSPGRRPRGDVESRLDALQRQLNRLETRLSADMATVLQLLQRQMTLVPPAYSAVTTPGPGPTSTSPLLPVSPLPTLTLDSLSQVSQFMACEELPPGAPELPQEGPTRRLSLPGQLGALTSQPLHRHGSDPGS
T1 sequence (Q9UKS7 whole entry): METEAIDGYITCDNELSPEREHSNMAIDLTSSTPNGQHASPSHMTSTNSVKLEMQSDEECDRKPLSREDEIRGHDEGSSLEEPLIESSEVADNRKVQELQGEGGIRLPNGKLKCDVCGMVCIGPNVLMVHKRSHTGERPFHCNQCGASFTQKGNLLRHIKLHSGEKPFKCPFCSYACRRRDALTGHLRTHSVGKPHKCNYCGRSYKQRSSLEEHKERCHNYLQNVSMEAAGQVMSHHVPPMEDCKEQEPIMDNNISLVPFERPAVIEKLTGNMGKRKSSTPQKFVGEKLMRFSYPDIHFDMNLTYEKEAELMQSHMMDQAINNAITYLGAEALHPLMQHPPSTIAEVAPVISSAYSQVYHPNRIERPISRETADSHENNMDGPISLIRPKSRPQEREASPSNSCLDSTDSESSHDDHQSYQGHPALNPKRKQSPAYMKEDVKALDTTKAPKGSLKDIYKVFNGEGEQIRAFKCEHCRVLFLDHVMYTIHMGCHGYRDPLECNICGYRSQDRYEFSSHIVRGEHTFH
T1 sequence (Q96SW2 whole entry): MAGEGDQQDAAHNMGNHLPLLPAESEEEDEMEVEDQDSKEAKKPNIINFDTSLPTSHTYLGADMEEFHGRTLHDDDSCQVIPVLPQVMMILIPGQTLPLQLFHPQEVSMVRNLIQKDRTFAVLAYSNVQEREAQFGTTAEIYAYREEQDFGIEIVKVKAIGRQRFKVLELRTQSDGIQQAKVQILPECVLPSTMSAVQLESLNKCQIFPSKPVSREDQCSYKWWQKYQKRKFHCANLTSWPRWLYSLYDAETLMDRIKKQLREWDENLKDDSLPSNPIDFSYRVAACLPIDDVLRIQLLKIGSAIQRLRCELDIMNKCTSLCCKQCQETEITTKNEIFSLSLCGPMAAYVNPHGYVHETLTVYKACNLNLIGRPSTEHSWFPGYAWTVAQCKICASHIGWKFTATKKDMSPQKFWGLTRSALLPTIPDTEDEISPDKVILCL
T1 sequence (Q16531 whole entry partner): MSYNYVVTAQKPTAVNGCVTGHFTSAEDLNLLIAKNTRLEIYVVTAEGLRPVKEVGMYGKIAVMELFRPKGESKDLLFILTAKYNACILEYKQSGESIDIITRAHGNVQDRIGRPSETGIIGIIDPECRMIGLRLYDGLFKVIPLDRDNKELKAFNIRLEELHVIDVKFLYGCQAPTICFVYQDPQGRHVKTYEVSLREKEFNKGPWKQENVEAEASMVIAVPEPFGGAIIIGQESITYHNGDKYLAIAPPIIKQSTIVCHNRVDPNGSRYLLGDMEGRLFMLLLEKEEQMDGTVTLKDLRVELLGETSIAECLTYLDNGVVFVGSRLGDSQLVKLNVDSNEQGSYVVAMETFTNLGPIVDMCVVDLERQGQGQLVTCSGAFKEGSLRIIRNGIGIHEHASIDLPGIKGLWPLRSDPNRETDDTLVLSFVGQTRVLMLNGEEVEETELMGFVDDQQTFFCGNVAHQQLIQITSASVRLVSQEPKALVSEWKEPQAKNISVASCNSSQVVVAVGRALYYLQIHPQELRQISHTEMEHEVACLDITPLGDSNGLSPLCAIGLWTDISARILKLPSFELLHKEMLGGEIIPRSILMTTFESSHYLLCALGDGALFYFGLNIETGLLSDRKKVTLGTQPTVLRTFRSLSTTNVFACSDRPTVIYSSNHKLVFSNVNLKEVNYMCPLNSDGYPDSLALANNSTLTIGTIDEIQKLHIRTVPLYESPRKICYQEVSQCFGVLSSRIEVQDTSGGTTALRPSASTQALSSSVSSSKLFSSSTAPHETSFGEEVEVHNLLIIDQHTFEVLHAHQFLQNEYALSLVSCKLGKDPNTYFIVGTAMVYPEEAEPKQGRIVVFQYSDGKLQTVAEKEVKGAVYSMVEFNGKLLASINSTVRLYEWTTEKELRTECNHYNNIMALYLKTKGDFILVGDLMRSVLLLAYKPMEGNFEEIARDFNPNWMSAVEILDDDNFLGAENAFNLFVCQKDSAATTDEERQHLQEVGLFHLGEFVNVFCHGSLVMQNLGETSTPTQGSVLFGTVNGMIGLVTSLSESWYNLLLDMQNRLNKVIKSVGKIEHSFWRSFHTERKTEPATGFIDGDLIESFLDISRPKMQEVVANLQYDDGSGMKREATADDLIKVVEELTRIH

Take `O=C1CCC(N2C(=O)c3ccc(C4(O)CCN(C5CCc6ncccc65)CC4)cc3C2=O)C(=O)N1` (centres unmarked) [Compound 7, 5-(1-{5H,6H,7H-cyclopenta[b]pyridin-5-yl}-4-hydroxypiperidin-4-yl)-2-(2,6-dioxopiperidin-3-yl)-2,3-dihydro-1H-isoindole-1,3-dione, HCl salt]: the IC50 in data set [1] was more than 30000 nM. Moreover, in data set [2], the DC50 stood at 9 nM and the Dmax at 30 µM was 90%.

In turn, `CC1CC(O)(c2ccc3c(c2)C(=O)N(C2CCC(=O)NC2=O)C3=O)CCN1Cc1ccccc1` (centres unmarked) [Compound 15, 5-(1-benzyl-4-hydroxy-2-methylpiperidin-4-yl)-2-(2,6-dioxopiperidin-3-yl)-2,3-dihydro-1H-isoindole-1,3-dione] yielded an IC50 in data set [1] of more than 30000 nM. In data set [2], the DC50 is 12 nM and the Dmax at 30 µM is 66%.

Turning to `O=C1CCC(N2C(=O)c3ccc(C4(O)CCN(Cc5ccc(F)c(F)c5)CC4)cc3C2=O)C(=O)N1` (centres unmarked) [Compound 60, 5-{1-[(3,4-difluorophenyl)methyl]-4-hydroxypiperidin-4-yl}-2-(2,6-dioxopiperidin-3-yl)-2,3-dihydro-1H-isoindole-1,3-dione, HCl salt], the midpoint of inhibition in data set [1], the IC50, lay at 23000 nM. In data set [2], the DC50 is 6 nM and the Dmax at 30 µM was 80%.

With `O=C1CCC(N2C(=O)c3ccc(C4(O)CCN(Cc5ccc6scnc6c5)CC4)cc3C2=O)C(=O)N1` (centres unmarked) [Compound 111, 5-{1-[(1,3-benzothiazol-5-yl)methyl]-4-hydroxypiperidin-4-yl}-2-(2,6-dioxopiperidin-3-yl)-2,3-dihydro-1H-isoindole-1,3-dione, HCl salt], the IC50 in data set [1] was more than 30000 nM. In addition, in data set [2], the DC50 was found to be 5 nM and the Dmax at 30 µM was 83%.

Molecule `O=C1CCC(N2C(=O)c3ccc(C4(O)CCN(Cc5ccc(F)cc5)CC4)c(F)c3C2=O)C(=O)N1` (centres unmarked) [Compound 132, 2-(2,6-dioxopiperidin-3-yl)-4-fluoro-5-(1-(4-fluorobenzyl)-4-hydroxypiperidin-4-yl)isoindoline-1,3-dione] had an IC50 in data set [1] (human) of 30000 nM. Moreover, in data set [2], the DC50 was 7 nM and the Dmax at 30 µM was found to be 79%.

As to `CCCN1CCC(O)(c2ccc3c(c2)C(=O)N(C2CCC(=O)NC2=O)C3=O)CC1` (centres unmarked) [Compound 146, 2-(2,6-dioxopiperidin-3-yl)-5-(4-hydroxy-1-propylpiperidin-4-yl)-2,3-dihydro-1H-isoindole-1,3-dione, HCl salt], in data set [2], the DC50 was 43 nM and the Dmax at 30 µM was found to be 69%.

For `O=C1CCC(N2C(=O)c3ccc(C4(O)CCN(Cc5ccc(-c6nccs6)cc5)CC4)cc3C2=O)C(=O)N1` (centres unmarked) [Compound 147, 2-(2,6-dioxopiperidin-3-yl)-5-(4-hydroxy-1-{[4-(1,3-thiazol-2-yl)phenyl]methyl}piperidin-4-yl)-2,3-dihydro-1H-isoindole-1,3-dione, HCl salt], in data set [2], the DC50 amounted to 8 nM and the Dmax at 30 µM was determined as 88%.

On to `CCCN1CCC(O)(c2ccc3c(c2F)C(=O)N(C2CCC(=O)NC2=O)C3=O)CC1` (centres unmarked) [Compound 148, 2-(2,6-dioxopiperidin-3-yl)-4-fluoro-5-(4-hydroxy-1-propylpiperidin-4-yl)-2,3-dihydro-1H-isoindole-1,3-dione, HCl salt], for which, in data set [2], the DC50 is 30 nM and the Dmax at 30 µM was found to be 73%.

With `O=C1CCC(N2C(=O)c3ccc(C4(O)CCN(CC(O)c5ccccc5)CC4)cc3C2=O)C(=O)N1` (centres unmarked) [Compound 149, 2-(2,6-dioxopiperidin-3-yl)-5-(4-hydroxy-1-(2-hydroxy-2-phenylethyl)piperidin-4-yl)isoindoline-1,3-dione], in data set [2], the DC50 turned out to be 22 nM and the Dmax at 30 µM was determined as 76%.

By IC50 is commonly meant the concentration that gives 50% inhibition. Higher therefore signals weaker potency in that assay.
